Test results as given in patent publication US20200268701A1, “COMPOSITIONS AND METHODS FOR PRODUCING ELEVATED AND SUSTAINED KETOSIS” (University of South Florida, priority 2013, published 2020).
Counter-ions that a name gives are not always drawn. Blank lines part the entries; values can stand above or below the compound they belong to.

How the values were obtained:
[1] = parameters: species or system Sprague-Dawley rats; details: rat, in vivo
Excerpt: (§1) Subject rats (n=74), 275-325 grams, were randomly assigned to a control group (no supplementation) or to one of three ketone precursor groups: medium chain triglyceride (MCT) oil (MO), mineral (Na^+/K+) salt of β-hydroxybutyrate (βHB) (SO), or SO+MO 1:1 combination (SM). The ketone mineral salt was developed and synthesized by Dr. Patrick Arnold from Prototype Nutrition. Pure pharmaceutical grade MCT oil was purchased from Now Foods (Bloomingdale, Ill.). SM was mixed at a 1:1 ratio.
(§2) Rats were supplemented with medium chain triglyceride (MCT) oil (MO), or a mineral (Na+/K+) salt of β-hydroxybutyrate (βHB) (SO), or SO+MO 1:1 mixture (SM) and force fed a daily at a dose of 5 g/kg body weight on days 1-14, followed by a 10 g/kg dose on days 15-28 rats Supplementation was given between 10 am and […] daily to eliminate variance based on regular eating patterns. Diets were not restricted for this study.
Once a week, animals were fasted for 4 hours prior to intragastric gavage of the appropriate ketone supplement. The four hour food restriction was used to eliminate normal variance in blood glucose and ketone levels due to food consumption. […]

[2] = human, in vivo, po
Protocol: All procedures were done in accordance with the University of South Florida Institutional Review Board (IRB) guidelines. BHB salts and MCT oil were given to human subjects as a ketogenic food supplement and blood measurements of BHB and/or glucose were taken at predetermined time points.
To determine the time course of ketosis, the subjects were orally given the test substances of a BHB salt solution (450 mL; 4%, approximately 18 g), an MCT oil (30 mL, approximately 30 g), or a combination of the a BHB salt solution and an MCT oil. Blood concentrations of glucose and BHB were determined utilizing a commercially available glucose/ketone monitoring system (Precision Xtra® blood glucose and ketone meter) at defined time points (0, 15, 30, 60, 120, 240 and 480 minutes following ingestion of the test substances).
The subject was administered a BHB salt solution containing 4% Na^+/K^+ BHB salts in solution, an MCT oil, or a combination of the 4% Na^+/K^+ BHB salts and the MCT oil. At 15, 30, 60, 120, 240 and 480 minutes after administration, blood was drawn. The subject returned on days 2 and 3 for additional supplements, with blood taken as on day 1. Levels of BHB in the blood were determined as described above.

[3] = Change of body weight in rats during 28 days of ketone supplementation; format: in vivo, Sprague-Dawley rats; details: daily for 28 days
Protocol: Diets were not restricted for this study. Once a week, animals were fasted for 4 hours prior to intragastric gavage of the appropriate ketone supplement. The four hour food restriction was used to eliminate normal variance in blood glucose and ketone levels due to food consumption. […] Animals were weighed once per week to maintain accurate dosage using the […] Toledo SB 16001 scales. Rats were administered SO, MO, or SM daily for 28 days as described above. Each week the animals were weighed. […] The control animals continued to gain weight throughout the month-long study. In comparison, the ketone supplement treatment groups all gained less weight. […] A key finding of this study is that the SM group was able to limit weight gain in an unexpected way as the amounts of BHB and MCT when combined were much lower than the amounts of those ingredients used in the SO and MO treatment groups. This effect on body weight gain is likely due to appetite suppression caused by the supplements, rather than a reduced intake of the supplement itself, as force feeding controlled for dosing.

[4] = Blood βHB levels of a fasted 70 kg subject after oral administration; format: in vivo, human; parameters: unit: mM; details: for Blood βHB levels Mean: 70 kg male, mean of 3 days; for Blood βHB levels Day 1 / Blood βHB levels Day 2 / Blood βHB levels Day 3: 70 kg person
Protocol: (§3) To determine the time course of ketosis, the subjects were orally given the test substances of a BHB salt solution (450 mL; 4%, approximately 18 g), an MCT oil (30 mL, approximately 30 g), or a combination of the a BHB salt solution and an MCT oil. Blood concentrations of glucose and BHB were determined utilizing a commercially available glucose/ketone monitoring system (Precision Xtra® blood glucose and ketone meter) at defined time points (0, 15, 30, 60, 120, 240 and 480 minutes following ingestion of the test substances). Subject (70 kg) was instructed to fast for three days, and was given a single daily oral administration of either ßHB salts (4% solution containing 11 grams sodium ßHB and 7.1 grams potassium ßHB), MCT oil or ßHB salts+MCT oil at 15, 30, 60, 120, 240 and 480 minutes on 3 consecutive days. At 15, 30, 60, 120, 240 and 480 minutes after administration, blood was drawn. The subject returned on days 2 and 3 for additional supplements, with blood taken as on day 1, as in Example 1.

[5] = Blood glucose levels of a fasted 70 kg subject after oral administration; format: in vivo, human; details: for Blood glucose levels Mean: 70 kg male, mean of 3 days; for Blood glucose levels Day 1 / Blood glucose levels Day 2 / Blood glucose levels Day 3: 70 kg person
Protocol: as §3, with “1. […] Blood glucose levels were determined as described above.” for “1.”

[6] = Blood glucose levels in rats after ketone supplementation; format: in vivo, Sprague-Dawley rats
Excerpt: as §1, §2
Once a week, animals were fasted for 4 hours prior to intragastric gavage of the appropriate ketone supplement. The four hour food restriction was used to eliminate normal variance in blood glucose and ketone levels due to food consumption. Whole blood samples (10 μL) were acquired from the saphenous vein of the subjects for analysis of glucose and βHB utilizing the commercially available glucose and ketone monitoring system Precision Xtra™ (Abbott Laboratories, Abbott Park, Ill.) at time intervals of 0, 0.5, 1, 4, 8, and 12 hours after ketone precursor supplements were administered, or until βHB returned to baseline. On Day 0 (Week 0) and Day 28 (Week 4), whole blood samples (10 μL) were acquired for analysis of total cholesterol, HDL, and triglycerides for a lipid panel utilizing the commercially available home cholesterol analyzer Cardio Chek™ (Polymer Technology Systems, Inc., Indianapolis, Ind.) at time 0. Animals were weighed once per week to maintain accurate dosage using the Mittler Toledo SB 16001 scales.

Triglyceride levels at week 4 compared with week 0 [1]: little change
Elevation in BHB levels (in words) [2]: little elevation in BHB levels
Time of peak plasma BHB level after administration [2]: 60 min
Compound: medium chain triglyceride (MCT) oil [MCT (30 mL)]

Triglyceride levels at week 4 compared with week 0 [1]: mildly elevated
Blood βHB levels Mean ([4]; time 0 minutes): 0.87
Blood βHB levels Mean ([4]; time 30 minutes): 1.73
Blood βHB levels Mean ([4]; time 60 minutes): 2.77
Blood βHB levels Mean ([4]; time 120 minutes): 1.73
Blood βHB levels Mean ([4]; time 240 minutes): 1.53
Blood βHB levels Mean ([4]; time 480 minutes): 1.53
Blood βHB levels Day 1 ([4]; time 0 minutes): 0.2
Blood βHB levels Day 2 ([4]; time 0 minutes): 0.6
Blood βHB levels Day 3 ([4]; time 0 minutes): 1.8
Blood βHB levels Day 1 ([4]; time 30 minutes): 0.7
Blood βHB levels Day 2 ([4]; time 30 minutes): 1.8
Blood βHB levels Day 3 ([4]; time 30 minutes): 2.7
Blood βHB levels Day 1 ([4]; time 60 minutes): 1.1
Blood βHB levels Day 2 ([4]; time 60 minutes): 2.4
Blood βHB levels Day 3 ([4]; time 60 minutes): 4.8
Blood βHB levels Day 1 ([4]; time 120 minutes): 0.3
Blood βHB levels Day 2 ([4]; time 120 minutes): 1.6
Blood βHB levels Day 3 ([4]; time 120 minutes): 3.3
Blood βHB levels Day 1 ([4]; time 240 minutes): 0.4
Blood βHB levels Day 2 ([4]; time 240 minutes): 1.2
Blood βHB levels Day 3 ([4]; time 240 minutes): 3
Blood βHB levels Day 1 ([4]; time 480 minutes): 0.6
Blood βHB levels Day 2 ([4]; time 480 minutes): 1.6
Blood βHB levels Day 3 ([4]; time 480 minutes): 2.4
Compound: CC(O)CC(=O)O (stereo not drawn) [BHB salt (450 mL), β-hydroxybutyrate]
Body weight gain compared to controls (in words) [3]: gained significantly less weight compared to controls
Blood glucose levels Mean ([5]; time 0 minutes): 90.00
Blood glucose levels Mean ([5]; time 30 minutes): 87.00
Blood glucose levels Mean ([5]; time 60 minutes): 81.00
Blood glucose levels Mean ([5]; time 120 minutes): 77.33
Blood glucose levels Mean ([5]; time 240 minutes): 77.33
Blood glucose levels Mean ([5]; time 480 minutes): 74.67
Blood glucose levels Day 1 ([5]; time 0 minutes): 100
Blood glucose levels Day 2 ([5]; time 0 minutes): 90
Blood glucose levels Day 3 ([5]; time 0 minutes): 80
Blood glucose levels Day 1 ([5]; time 30 minutes): 95
Blood glucose levels Day 2 ([5]; time 30 minutes): 95
Blood glucose levels Day 3 ([5]; time 30 minutes): 71
Blood glucose levels Day 1 ([5]; time 60 minutes): 85
Blood glucose levels Day 2 ([5]; time 60 minutes): 90
Blood glucose levels Day 3 ([5]; time 60 minutes): 68
Blood glucose levels Day 1 ([5]; time 120 minutes): 82
Blood glucose levels Day 2 ([5]; time 120 minutes): 85
Blood glucose levels Day 3 ([5]; time 120 minutes): 65
Blood glucose levels Day 1 ([5]; time 240 minutes): 80
Blood glucose levels Day 2 ([5]; time 240 minutes): 84
Blood glucose levels Day 3 ([5]; time 240 minutes): 68
Blood glucose levels Day 1 ([5]; time 480 minutes): 76
Blood glucose levels Day 2 ([5]; time 480 minutes): 80
Blood glucose levels Day 3 ([5]; time 480 minutes): 68
Elevation in BHB levels (in words) [2]: higher elevation in BHB levels than MCT oil alone
Blood glucose versus control (in words) ([6]; 5 g/kg, week 0): did not show any significant difference compared to control
Blood glucose versus control (in words) ([6]; 5 g/kg, week 1): began reducing glucose by 8 hours
Blood glucose versus control (in words) ([6]; 10 g/kg, week 2 onward): reduced glucose levels at 30 minutes through 8 hours
